Reference: patent publication US4876265A, “Process and compositions for controlling mites parasitizing on honey bees” (priority 1983, dated 1989)

Tests used:
Acarapis woodi [1] = experiment: Package bee colonies infested with Acarapis woodi, mite survival; assay type: in vivo
Experimental: (§1) Forty-two packages of honey bees (2 lbs.~907 g) are obtained from 22 colonies infested with Acarapis woodi. Infestations range from 60 to 100%. Each package is provided with a mated queen and 550 ml of treated or untreated 50% (wt/wt) sucrose syrup. All treated colonies receive syrup containing either 0.5 mg/ml (group B) or 1.0 mg/ml (group C) of 2-(2,4-dimethylphenylimino)-3-methyl-4-thiazoline hydrochloride. The control (group A) consists of 10 packages of bees and the treatment groups B and C of 16 packages each.
(§2) After installation on frames free of nectar and pollen, package colonies are examined at weekly intervals to determine food consumption, brood production and bee mortality. Random samples of ten bees/colony are examined on days 5, 12, 19, 26, 33 and 40. On day 0 and 5 bees are examined. Dissections and live mite determinations are made according to Eischen et al. (Am. Bee J. 127: 99-101, 1987).

honey bees = experiment: Package bee colonies, brood production and food consumption; assay type: in vivo, honey bee; conditions: 0.5 mg/ml and 1.0 mg/ml; more pronounced at the higher concentration
Experimental: as §1, §2

Acarapis woodi [2] = experiment: Honey-bee colonies in northeastern Mexico, parasite load; assay type: in vivo; conditions: 0.3 mg/ml in syrup, three times weekly, P<0.05
Experimental: (§3) Three groups of honey-bee colonies (N=30) located in northeastern Mexico are selected on the basis of the prevalence of Acarapis woodi parasitizing their workers. Lightly (≤10%), moderately (20-60%), and heavily (90-100%) infested colonies are randomly assigned to control or treated subgroups (N=15). Controls receive 50% sucrose syrup, and treated colonies receive syrup medicated with 0.3 mg/ml 2-(2,4-dimethylphenylimino)-3-methyl-4-thiazoline-hydrochloride, small, medium, and large colonies receive 300, 600, and 1000 ml of syrup, respectively. Syrup is fed three times at weekly intervals.

honey-bee colonies = experiment: Honey-bee colonies in northeastern Mexico, bee population; assay type: in vivo; conditions: end of the test; P<0.05
Experimental: as §3

Varroa jacobsoni [3] = experiment: Comparative test, lethal dosage for varroa mites; assay type: in vivo; conditions: for LD50 in μg active ingredient/bee: oral, 10 μl sucrose suspension
From the text: Compounds (I), (A) and (B) are formulated in accordance with Example F-1.
The age distribution of the bees in the test group is identical with that in a normal hive. The bees used in the laboratory tests originate from colonies only slightly infested with nosema. All groups of bees are infected with varroatosis (Varroa jacobsoni). To test the tolerance by the bees and the acaricidal activity in the group, 40 bees from the same colony are placed with their brood in each cage. To achieve a better control, each cage is fitted with a pane of glass. A small piece of honeycomb (6×8 cm) is attached at the top of each cage to pacify the bees. During the test period, the bees are kept in a climatic chamber at 25° C. and 85% relative humidity. These conditions are chosen because they are maximally acceptable both for the mites and the bees: the parasitizing mites are least affected and the bees live sufficiently long. To test the systemic activity of the active substance, 4 bees--within a group of 40 bees--are each individually fed with 10 μl of a suspension of the active substance in a 50% aqueous solution of sucrose. The bees have not been fed for at least one hour so that feed with a higher dose can be more readily ingested. 3 to 4 doses are tested in each of 2 groups. In each test series, 2 groups are left untreated as controls.
24 and 48 hours after treatment, the activity on varroa mites is determined on the basis of mite mortality. For this purpose a tray (mesh width=2.4 mm) is fixed above the floor of each of the test cages. The mites which have dropped off the bees can thus be collected on paper which had been placed under the tray. 72 hours after treatment, the bees are sacrificed and then washed in benzine to determine the number of mites which have remained on them (method of determining the number of remaining mites according to Ritter, Apidologie, 1980, 11(2), 131-141).
Percentage mite mortality can be determined from the number of mites which have remained on the bees and the number which have dropped off. Using the Probit analysis (Cavalli-Sforza, Biometrie, G. Frischer Verlag, Stuttgart), the LD50 can be determined from the dosage-mortality curve.

Varroa jacobsoni [4] = conditions: Thailand, 10 colonies each, four products; manufacturers' dose rates for Varroa-mite-treatment; cited from earlier work
Tropilaelaps clareae = conditions: Thailand, 10 colonies each, four products; dose rates proposed for Varroa-mite-treatment; cited from earlier work
bees [5] = experiment: Wetting method in the beehive, bees killed (tolerability); assay type: in vivo, honey bee
Experimental: (§4) Six brood-less nuclei [small, manmade colonies of bees with usually 1000 to perhaps 5000 bees; see Morse and Hooper (1985), supra, Nucleus colony, p. 279] infested with varroa mites are treated three times, at intervals of 4 days, with a 0.5% aqueous solution of 2-(2,4-dimethylphenylimino)-3-methylthiazoline. The active substance is dissolved in the form of a concentrate formulation in water. 5 ml of the active substance solution are dropped onto a number of bees present in the bee ways of a beehive. The test is terminated 4 days after the last treatment, that is after a duration of 12 days. The mites and bees which have died in the course of the test are collected on a bottom tray covered with gauze, which has been inserted under the combs before commencement of the test. At the end of the test, the bees are killed, and the mites remaining on them are washed out in benzine and counted. For the evaluation, the number of dead mites and bees collected during the test is determined, the fact being taken into consideration that for the length of time of the test a natural mortality rate of about 0.5% of bees is to be expected.

bees [6] = experiment: Tests under natural conditions, bee mortality rate; assay type: in vivo, honey bee; conditions: overall; in the range of the untreated control group; 30240 min
From the text: 33 brood-less bee colonies (~20,000 bees) infested with varroa mites are divided into three groups and treated with 2-(2,4-dimethylphenylimino)-3-methylthiazoline in solutions of varying concentration, originating in one case from a 15% emulsion concentrate (EC-15) and in the other case from a 15% water-soluble powder (SP-15). In the latter case, the active ingredient I is in the form of a salt (cf. Formulation Examples).
All three groups A, B and C, each consisting of 11 colonies, receive during the time of treatment the same total amount of active ingredient.
In the following the applied amounts per bee way are given. Depending on the size of the bee colony, a beehive contains between 5 and 15 bee ways, so that the amount of active ingredient applied is correspondingly adjusted from hive to hive.
In each case 5 ml of a 4% aqueous solution or emulsion per bee way are sprayed onto a number of selected bees. The remaining bees provide for a uniform distribution of the active ingredient in the colony. The partial wetting procedure is repeated after 7 days and after 14 days (observation period 21 days). […]
The mites and bees that have died during and after the treatment are collected daily from a bottom tray. 21 days after the first application, the bee colonies are killed and the remaining number of mites is then determined (observation period 21 days).

varroa mites [7] = experiment: Wetting method in the beehive, mites killed; assay type: in vivo; conditions: 0.5% aqueous solution, 5 ml dropped, three times at 4-day intervals; 12 days
Experimental: as §4

varroa mites [8] = experiment: Feeding method in the laboratory, varroa mite mortality; assay type: in vivo; conditions: 7 days
Experimental: Thirty bees infested with varroa mites are each individually fed with 10 μl of a sugar-containing solution of 2-(2,4-dimethylphenylimino)-3-methylthiazoline. […] After being fed, the bees are kept in groups each of 10 for 7 days in cages. The mites which in the course of the test have fallen off dead are collected in trays placed under the individual cages. The bees are subsequently killed and are examined for remaining mites. The counting of the mites that have fallen down and those remaining on the bees is carried out after 7 days.

Which results are given for `Cc1ccc(N=c2sccn2C)c(C)c1.Cl` [2-(2,4-dimethylphenylimino)-3-methyl-4-thiazoline hydrochloride]?
time at which efficacy is apparent (Acarapis woodi [1]; 0.5 mg/ml and 1.0 mg/ml in syrup): 7 days; control of mites (Acarapis woodi [1]; after 26 days): almost complete control of mites; Mite survival (Acarapis woodi [1]; groups B (0.5 mg/ml) and C (1.0 mg/ml) in syrup, after 14 days): less than 1 live mite/trachea; live mites found in the tracheae of treated package bees (Acarapis woodi [1]; groups B (0.5 mg/ml) and C (1.0 mg/ml), after 26 days): no live mites; effect on honey bee larvae (spotty brood patterns) (honey bees): detrimental to some honey bee larvae as spotty brood patterns are observed in several colonies; parasite load score (Acarapis woodi [2]; heavily infested (90-100%), control 1.13): 0.63; parasite load score (Acarapis woodi [2]; lightly infested (≤10%), control 2.25): 0.53; parasite load score (Acarapis woodi [2]; moderately infested (20-60%), control 3.43): 0.84; bee population of medicated colonies versus controls (honey-bee colonies): significantly larger bee populations than controls

With `CCn1ccsc1=Nc1ccc(C)cc1C` [Compound (A)] as the compound, how does the “LD50 in μg active ingredient/bee” value (Varroa jacobsoni [3]; 24 hours after application) read?
Its value is 35 μg active ingredient/bee.

And the “LD50 in μg active ingredient/bee” value (Varroa jacobsoni [3]; 48 hours after application)?
The value was 35 μg active ingredient/bee.

Which results are given for `Cc1cccc(C)c1N=c1sccn1C` [Compound (B)]?
LD50 in μg active ingredient/bee (Varroa jacobsoni [3]; 24 hours after application): 28 μg active ingredient/bee; LD50 in μg active ingredient/bee (Varroa jacobsoni [3]; 48 hours after application): 28 μg active ingredient/bee

For `Cc1ccc(N=c2sccn2C)c(C)c1` [Compound (I), 2-(2,4-dimethylphenylimino)-3-methylthiazoline], which “comparative efficacy against Varroa jacobsoni” value (Varroa jacobsoni [4]) is on record?
Its value is “best product against both mites”.

And the “comparative efficacy against Tropilaelaps clareae” value (Tropilaelaps clareae)?
Its value is “best product against both mites”.

What about the “Killed organisms in %: bees” value (bees [5]; 0.5% aqueous solution, 5 ml dropped, three times at 4-day intervals, 12 days, natural mortality about 0.5% expected) of the same compound?
The value was 0.4%.

What about the “mortality of the bees during the test” value (bees [5]; compared with expected range and untreated control group) of the same compound?
Its value is “exactly within the expected range and does not differ from the mortality of the untreated control group”.

What about the “mortality of the treated bees” value (bees [6]) of the same compound?
Its value is “about 1%”.

And the “LD50 in μg active ingredient/bee” value (Varroa jacobsoni [3]; 24 hours after application)?
Its value is 17 μg active ingredient/bee.

What about the “LD50 in μg active ingredient/bee” value (Varroa jacobsoni [3]; 48 hours after application) of the same compound?
The value was 13 μg active ingredient/bee.

And the “activity against varroa mites versus compounds (A) and (B)” value (Varroa jacobsoni [3]; varroacidal test)?
Its value is “significantly better activity against varroa mites”.

And the “Killed organisms in %: mites” value (varroa mites [7])?
Its value is 91.8%.

What about the Fallen mites (varroa mites [8]; 10 μl sugar solution fed per bee, 30 bees, total mites 35) of the same compound?
The Fallen mites was 34.

And the “Mortality rate in % (mites)” value (varroa mites [8]; 10 μl sugar solution fed per bee)?
Its value is 97%.

And the “killing of parasitizing mites” value (varroa mites [8]; feeding method in the laboratory)?
Its value is “killing nearly all of the parasitizing mites”.
